# According to ChEMBL document CHEMBL1136246, “Structure activity studies of a novel cytotoxic benzodiazepine” (Bioorg Med Chem Lett, 2003):
# Columns and labels:
# Ramos [1] = experiment: Lymphotoxic activity against immortalized Ramos B cells in culture; assay type: functional, cell-based; conditions: Homo sapiens
# Ramos [2] = experiment: Inhibition of Ramos B cells death in the presence of 20 uM methylating phenol (Compound 20); assay type: functional, Homo sapiens
# Ramos [3] = experiment: Inhibition of Ramos B cells death in the presence of FK506 (1 uM); assay type: functional, Homo sapiens
SMILES,EC50 (Ramos [1]) [µM],Inhibition (Ramos [2]) [%],Inhibition (Ramos [3]) [%]
COc1ccc(C2=NC(Cc3ccc4ccccc4c3)C(=O)N(C)c3ccc(Cl)cc32)cc1 (stereo unspecified),> 80,,
CN1C(=O)C(Cc2ccc3ccccc3c2)N=C(c2ccc(Cl)cc2)c2cc(Cl)ccc21 (stereo unspecified),> 80,,
CN1C(=O)C(Cc2ccc3ncccc3c2)N=C(c2ccc(O)cc2)c2cc(Cl)ccc21 (stereo unspecified),13,0,20
CN1C(=O)C(Cc2cccc3ccccc23)N=C(c2ccc(O)cc2)c2cc(Cl)ccc21 (stereo unspecified),5,67,72
CN1C(=O)C(Cc2cccc(O)c2)N=C(c2ccc(O)cc2)c2cc(Cl)ccc21 (stereo unspecified),22,20,14
CN1C(=O)C(Cc2ccc(-c3ccccc3)cc2)N=C(c2ccc(O)cc2)c2cc(Cl)ccc21 (stereo unspecified),7,69,74
Cc1ccc(C)c(CC2N=C(c3ccc(O)cc3)c3cc(Cl)ccc3N(C)C2=O)c1 (stereo unspecified),7,23,80
CN1C(=O)C(Cc2cc3ccccc3cn2)N=C(c2ccc(O)cc2)c2cc(Cl)ccc21 (stereo unspecified),10,0,42
CN1C(=O)C(Cc2ccc3ccccc3c2)N=C(c2ccc(N=[N+]=[N-])cc2)c2cc(Cl)ccc21 (stereo unspecified),> 80,,
CN1C(=O)C(Cc2cccc(-c3ccccc3)c2)N=C(c2ccc(O)cc2)c2cc(Cl)ccc21 (stereo unspecified),4,81,77
CN1C(=O)C(Cc2ccc(C(C)(C)C)cc2)N=C(c2ccc(O)cc2)c2cc(Cl)ccc21 (stereo unspecified),3,55,91
CCC(C)N(C)C(=O)c1cc2ccccc2c(-c2ccccc2Cl)n1 (stereo unspecified) [PK-11195],> 80,,
CN1C(=O)C(Cc2cnc3ccccc3c2)N=C(c2ccc(O)cc2)c2cc(Cl)ccc21 (stereo unspecified),11,4,39
CN1C(=O)C(Cc2ccc3ccccc3c2)N=C(c2cccc(O)c2)c2cc(Cl)ccc21 (stereo unspecified),6,0,70
CN1C(=O)C(Cc2ccccc2)N=C(c2ccc(O)cc2)c2cc(Cl)ccc21 (stereo unspecified),12,0,4
Cc1ccc(CC2N=C(c3ccc(O)cc3)c3cc(Cl)ccc3N(C)C2=O)cc1C (stereo unspecified),7,29,78
CN1C(=O)CN=C(c2ccccc2)c2cc(Cl)ccc21 [DIAZEPAM],> 80,,
CN1C(=O)CN=C(c2ccc(Cl)cc2)c2cc(Cl)ccc21 [RO-54864],> 80,,
Cc1cc(C2=NC(Cc3ccc4ccccc4c3)C(=O)N(C)c3ccc(Cl)cc32)ccc1O (stereo unspecified),3,87,78
CN1C(=O)C(Cc2ccc(OC(F)(F)F)cc2)N=C(c2ccc(O)cc2)c2cc(Cl)ccc21 (stereo unspecified),30,0,17
CN1C(=O)C(Cc2ccc(F)c(F)c2)N=C(c2ccc(O)cc2)c2cc(Cl)ccc21 (stereo unspecified),10,0,59
